Data published in patent US11440898B2, “Isoquinoline compounds, methods for their preparation, and therapeutic uses thereof in conditions associated with the alteration of the activity of beta galactosidase” (Minoryx Therapeutics S.L., priority 2016, dated 2022).

These compounds were tested against T1, mutated beta-galactosidase (p.R60H canine GLB1) in GM11473 fibroblasts (Canis lupus familiaris, UniProt Q9TRY9, R60H) (assay: Enhancement of β-galactosidase activity measured in GM1 fibroblasts (GM11473), 4-MU-β-D-galactopyranoside substrate). Conditions: increase in β-galactosidase enzyme activity vs non-treated cells, concentrations between 6 and 50 μM, 4 days incubation.
T1 construct: host or cells: GM11473 canine GM1 gangliosidosis fibroblasts
T1 sequence (Q9TRY9 30-668 R60H): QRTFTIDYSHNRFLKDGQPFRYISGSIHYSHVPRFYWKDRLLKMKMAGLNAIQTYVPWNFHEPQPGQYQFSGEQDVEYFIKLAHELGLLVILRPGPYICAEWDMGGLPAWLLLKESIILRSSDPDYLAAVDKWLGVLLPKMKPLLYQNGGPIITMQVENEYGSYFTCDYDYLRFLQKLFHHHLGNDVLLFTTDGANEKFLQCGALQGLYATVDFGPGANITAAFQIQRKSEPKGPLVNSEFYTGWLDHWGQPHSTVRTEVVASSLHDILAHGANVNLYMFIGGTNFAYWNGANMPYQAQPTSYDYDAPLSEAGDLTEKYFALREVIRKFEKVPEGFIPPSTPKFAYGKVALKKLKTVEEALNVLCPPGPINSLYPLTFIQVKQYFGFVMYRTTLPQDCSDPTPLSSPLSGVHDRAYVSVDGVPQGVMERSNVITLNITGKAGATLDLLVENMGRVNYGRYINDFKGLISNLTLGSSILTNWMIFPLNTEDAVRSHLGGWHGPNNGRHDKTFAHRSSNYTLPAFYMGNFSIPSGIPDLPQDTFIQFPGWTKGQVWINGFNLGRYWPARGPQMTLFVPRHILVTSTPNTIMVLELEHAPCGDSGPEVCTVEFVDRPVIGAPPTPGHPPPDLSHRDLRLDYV
Type: cell-based
Set-up: key: Increase in comparison with non-treated of >2.5 fold is shown as A; Increase in comparison with non-treated of >1.7-2.5 fold is shown as B; Increase in comparison with non-treated of 1.2-1.7 fold is shown as C; D means that no increase compared with non-treated cells was detected in this method
Description: The capacity of the Compounds of the Disclosure to enhance mutated beta-galactosidase activity levels in GM1 fibroblasts was assayed as follows.
Fibroblasts homozygous for a GM1 gangliosidosis missense mutation (GM11473) (canine fibroblasts homozygous for the GM1 gangliosidosis missense mutation p.R60H equivalent to human p.R59H mutation) were purchased from Coriell Institute for Medical Research (Camden, N.J., USA).
Fibroblasts were seeded at 4×10^4 cells per well in 12-well cell culture plates in Dulbecco's Modified Eagle's Media (DMEM) supplemented with 10% of fetal bovine serum (FBS), 1% penicillin/streptomycin (P/S) (Thermo Fisher Scientific, Waltham, Mass., USA) and incubated at 37° C., 5% CO2 overnight for cell attachment. Subsequently, cells were incubated in the absence or presence of the compounds at the desired concentration for 4 days. After incubation, cells were washed twice with phosphate-buffered saline (“PBS”) and detached using Trypsin-EDTA solution (Sigma Aldrich, St. Louis, Mo., USA) to prepare cell pellets. The pellets were stored at −80° C. until activity assays were performed.
β-Galactosidase activity in cell lysates was measured by using 4-Methylumbelliferyl-β-D-galactopyranoside substrate (Sigma Aldrich, St. Louis, Mo., USA). Briefly, lysates were resuspended in 200 μL of 0.9% NaCl containing 0.01% triton X-100 lysis buffer to promote membrane disruption. The cell suspension was sonicated and centrifuged to remove insoluble materials. Then, lysates were mixed with 4-MU-β-D-galactopyranoside in 100 mM citrate buffer (pH=4) and 100 mM NaCl for 60 min at 37° C. The reaction was terminated by adding 100 mM glycine-NaOH buffer (pH=10.7). The liberated 4-MU was measured on a GloMax Discover plate reader (Promega, Madison, Wis., USA) with excitation at 340 nm and emission at 460 nm. Protein quantification was determined using Pierce BCA Protein Assay Kit (Thermo Fisher Scientific, Waltham, Mass., USA). Measurements were interpolated in a 4-MU standard curve and normalized by protein quantity. Enzyme activities were expressed in treated cells as X-fold increase in comparison with non-treated cells (X=1 represents no enhancement).
The capacity of the Compounds of the Disclosure to produce an increase in β-galactosidase enzyme activity in canine GM1 fibroblasts bearing p.R60H canine GLB1 mutation at concentrations between 6 and 50 μM is denoted as follows: • Increase in comparison with non-treated of >2.5 fold is shown as A. • Increase in comparison with non-treated of >1.7-2.5 fold is shown as B. • Increase in comparison with non-treated of 1.2-1.7 fold is shown as C. • D means that no increase compared with non-treated cells was detected in this method. • ND means “not determined.”
For O=C(NCC(c1cccnc1)N1CCCC1)c1cc(Nc2nccc3ccc(Cl)cc23)ccn1 (stereo not drawn) [Example 7, 4-((7-Chloroisoquinolin-1-yl)amino)-N-(2-(pyridin-3-yl)-2-(pyrrolidin-1-yl)ethyl)picolinamide], the “Activity in GM11473 fibroblasts” value was “C (Increase in comparison with non-treated of 1.2-1.7 fold is shown as C)”.
For Cn1nnc2cc(CNS(=O)(=O)c3cccc(Nc4nccc5ccc(Cl)cc45)c3)ccc21 [Example 71, 3-((7-Chloroisoquinolin-1-yl)amino)-N-((1-methyl-1H-benzo[d][1,2,3]triazol-5-yl)methyl)benzenesulfonamide], the “Activity in GM11473 fibroblasts” value was “C (Increase in comparison with non-treated of 1.2-1.7 fold is shown as C)”.
In the case of O=C(NCc1ccc2c(c1)OCO2)c1ccc(Nc2nccc3ccc(Cl)cc23)nc1 [Example 62, N-(benzo[d][1,3]dioxol-5-ylmethyl)-6-((7-chloroisoquinolin-1-yl)amino)nicotinamide], the “Activity in GM11473 fibroblasts” value is reported as “D”.
For O=C(NCC(c1cccnc1)N1CCCC1)c1ccc(Nc2nccc3ccc(Cl)cc23)nc1 (stereo not drawn) [Example 53, 6-((7-Chloroisoquinolin-1-yl)amino)-N-(2-(pyridin-3-yl)-2-(pyrrolidin-1-yl)ethyl)nicotinamide], the “Activity in GM11473 fibroblasts” value was “C (Increase in comparison with non-treated of 1.2-1.7 fold is shown as C)”.
For O=C(NCc1ccc2c(c1)OCCO2)c1ccc(Nc2nccc3ccc(Cl)cc23)nc1 [Example 54, 6-((7-Chloroisoquinolin-1-yl)amino)-N-((2,3-dihydrobenzo[b][1,4]dioxin-6-yl)methyl)nicotinamide], the “Activity in GM11473 fibroblasts” value was “C (Increase in comparison with non-treated of 1.2-1.7 fold is shown as C)”.
In the case of O=C(NCc1ccc2c(c1)OCCCO2)c1ccc(Nc2nccc3ccc(Cl)cc23)cn1 [Example 35, 5-((7-Chloroisoquinolin-1-yl)amino)-N-((3,4-dihydro-2H-benzo[b][1,4]dioxepin-7-yl)methyl)picolinamide], the “Activity in GM11473 fibroblasts” value is reported as “C (Increase in comparison with non-treated of 1.2-1.7 fold is shown as C)”.
O=S(=O)(NCc1ccc2c(c1)OCCO2)c1ccc(Nc2nccc3ccc(Cl)cc23)cc1 [Example 75, 4-((7-chloroisoquinolin-1-yl)amino)-N-((2,3-dihydrobenzo[b][1,4]dioxin-6-yl)methyl)benzenesulfonamide] was tested, and the “Activity in GM11473 fibroblasts” value was “B (Increase in comparison with non-treated of >1.7-2.5 fold is shown as B)”.
O=S(=O)(NC1CCc2ccccc2C1)c1ccc(Nc2nccc3ccc(Cl)cc23)cc1 (stereo not drawn) [Example 77, 4-((7-Chloroisoquinolin-1-yl)amino)-N-(1,2,3,4-tetrahydronaphthalen-2-yl)benzenesulfonamide] was tested, and the “Activity in GM11473 fibroblasts” value was “A (Increase in comparison with non-treated of >2.5 fold is shown as A)”.
For O=S(=O)(NCC1CCc2ccccc2C1)c1ccc(Nc2nccc3ccc(Cl)cc23)cc1 (stereo not drawn) [Example 78, 4-((7-Chloroisoquinolin-1-yl)amino)-N-((1,2,3,4-tetrahydronaphthalen-2-yl)methyl)benzenesulfonamide], the “Activity in GM11473 fibroblasts” value was “A (Increase in comparison with non-treated of >2.5 fold is shown as A)”.
For COc1ccc2ccnc(Nc3ccc(C(=O)NCC4CCc5ccccc5C4)nc3)c2c1 (stereo not drawn) [Example 47, 5-((7-Methoxyisoquinolin-1-yl)amino)-N-((1,2,3,4-tetrahydronaphthalen-2-yl)methyl)picolinamide], the “Activity in GM11473 fibroblasts” value was “B (Increase in comparison with non-treated of >1.7-2.5 fold is shown as B)”.
With COc1cccc(CNC(=O)c2ccc(Nc3nccc4ccc(Cl)cc34)nc2)c1 [Example 57, 6-((7-Chloroisoquinolin-1-yl)amino)-N-(3-methoxybenzyl)nicotinamide] the “Activity in GM11473 fibroblasts” value was “C (Increase in comparison with non-treated of 1.2-1.7 fold is shown as C)”.
In the case of O=C(NCc1ccc2c(c1)OCCO2)c1cccc(Nc2nccc3ccc(Cl)cc23)c1 [Example 3, 3-((7-Chloroisoquinolin-1-yl)amino)-N-((2,3-dihydrobenzo[b][1,4]dioxin-6-yl)methyl)benzamide], the “Activity in GM11473 fibroblasts” value is reported as “C (Increase in comparison with non-treated of 1.2-1.7 fold is shown as C)”.
For O=C(NC1CCc2ccccc2C1)c1cc(Nc2nccc3ccc(Cl)cc23)ccn1 (stereo not drawn) [Example 14, 4-((7-Chloroisoquinolin-1-yl)amino)-N-(1,2,3,4-tetrahydronaphthalen-2-yl)picolinamide], the “Activity in GM11473 fibroblasts” value was “B (Increase in comparison with non-treated of >1.7-2.5 fold is shown as B)”.
For O=C(NCc1ccc2c(c1)CCO2)c1ccc(Nc2nccc3ccc(Cl)cc23)cn1 [Example 36, 5-((7-Chloroisoquinolin-1-yl)amino)-N-((2,3-dihydrobenzofuran-5-yl)methyl)picolinamide], the “Activity in GM11473 fibroblasts” value was “C (Increase in comparison with non-treated of 1.2-1.7 fold is shown as C)”.
COc1ccc2c(c1)CCC(NC(=O)c1ccc(Nc3nccc4ccc(OC)cc34)cn1)C2 (stereo not drawn) [Example 46, N-(6-methoxy-1,2,3,4-tetrahydronaphthalen-2-yl)-5-((7-methoxyisoquinolin-1-yl)amino)picolinamide] was tested, and the “Activity in GM11473 fibroblasts” value was “C (Increase in comparison with non-treated of 1.2-1.7 fold is shown as C)”.
With O=C(NCc1ccc2c(c1)CCCO2)c1ccc(Nc2nccc3ccc(Cl)cc23)cn1 [Example 39, 5-((7-Chloroisoquinolin-1-yl)amino)-N-(chroman-6-ylmethyl)picolinamide] the “Activity in GM11473 fibroblasts” value was “B (Increase in comparison with non-treated of >1.7-2.5 fold is shown as B)”.
In the case of O=C(NCc1ccc2nsnc2c1)c1cc(Nc2nccc3ccc(Cl)cc23)ccn1 [Example 13, N-(benzo[c][1,2,5]thiadiazol-5-ylmethyl)-4-((7-chloroisoquinolin-1-yl)amino)picolinamide], the “Activity in GM11473 fibroblasts” value is reported as “D”.
For O=S(=O)(NCc1ccc2nsnc2c1)c1ccc(Nc2nccc3ccc(Cl)cc23)cc1 [Example 76, N-(benzo[c][1,2,5]thiadiazol-5-ylmethyl)-4-((7-chloroisoquinolin-1-yl)amino)benzenesulfonamide], the “Activity in GM11473 fibroblasts” value was “C (Increase in comparison with non-treated of 1.2-1.7 fold is shown as C)”.
